This note sets out measurements from ChEMBL document CHEMBL1201862, “PubChem BioAssay data set” (2004).

Activity calls are given as the source filed them.

One experiment has as its target T1, Caspase-3 (Homo sapiens, UniProt P42574).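 Further: Dose-response selectivity test against caspase-3 for candidate inhibitors of sentrin-specific proteases (SENPs).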
T1 sequence (P42574 whole entry): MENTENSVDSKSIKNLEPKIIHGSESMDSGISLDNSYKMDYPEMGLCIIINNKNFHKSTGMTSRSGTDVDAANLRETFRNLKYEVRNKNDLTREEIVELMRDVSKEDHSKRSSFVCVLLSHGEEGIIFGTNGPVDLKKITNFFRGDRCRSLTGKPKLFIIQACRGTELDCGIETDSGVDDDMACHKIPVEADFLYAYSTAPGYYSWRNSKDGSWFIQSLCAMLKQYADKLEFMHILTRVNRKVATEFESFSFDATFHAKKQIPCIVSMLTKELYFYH
Format: functional.

The target of experiment [1] is T2, Rac GTPase-activating protein 1 (Homo sapiens, UniProt Q9H0H5).
T2 sequence (Q9H0H5 whole entry): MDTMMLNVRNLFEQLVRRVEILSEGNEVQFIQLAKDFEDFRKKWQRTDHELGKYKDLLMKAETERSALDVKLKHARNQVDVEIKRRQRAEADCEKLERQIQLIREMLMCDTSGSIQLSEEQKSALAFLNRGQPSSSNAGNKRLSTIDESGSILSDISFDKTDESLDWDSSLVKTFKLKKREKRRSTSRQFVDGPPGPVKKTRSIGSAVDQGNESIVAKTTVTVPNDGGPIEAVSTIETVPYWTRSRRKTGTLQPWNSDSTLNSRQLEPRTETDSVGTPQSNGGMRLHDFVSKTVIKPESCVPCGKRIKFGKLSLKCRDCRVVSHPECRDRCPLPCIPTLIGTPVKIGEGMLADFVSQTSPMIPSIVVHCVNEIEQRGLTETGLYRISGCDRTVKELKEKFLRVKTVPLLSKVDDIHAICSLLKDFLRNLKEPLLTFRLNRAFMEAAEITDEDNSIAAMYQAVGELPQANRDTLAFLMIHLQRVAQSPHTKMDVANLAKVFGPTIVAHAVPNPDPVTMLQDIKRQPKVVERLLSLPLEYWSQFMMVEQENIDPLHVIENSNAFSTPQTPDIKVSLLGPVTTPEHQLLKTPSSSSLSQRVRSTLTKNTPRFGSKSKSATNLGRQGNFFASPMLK
Put plainly: MgcRacGAP GTPase-activating activity inhibitors, confirmation, biochemical, ADP Hunter fluorescence, primary and confirmatory (AID 624330). Format: functional.

The target of experiment [2] is T3, 1-phosphatidylinositol 4,5-bisphosphate phosphodiesterase beta-3 (Homo sapiens, UniProt Q01970).
T3 sequence (Q01970 whole entry): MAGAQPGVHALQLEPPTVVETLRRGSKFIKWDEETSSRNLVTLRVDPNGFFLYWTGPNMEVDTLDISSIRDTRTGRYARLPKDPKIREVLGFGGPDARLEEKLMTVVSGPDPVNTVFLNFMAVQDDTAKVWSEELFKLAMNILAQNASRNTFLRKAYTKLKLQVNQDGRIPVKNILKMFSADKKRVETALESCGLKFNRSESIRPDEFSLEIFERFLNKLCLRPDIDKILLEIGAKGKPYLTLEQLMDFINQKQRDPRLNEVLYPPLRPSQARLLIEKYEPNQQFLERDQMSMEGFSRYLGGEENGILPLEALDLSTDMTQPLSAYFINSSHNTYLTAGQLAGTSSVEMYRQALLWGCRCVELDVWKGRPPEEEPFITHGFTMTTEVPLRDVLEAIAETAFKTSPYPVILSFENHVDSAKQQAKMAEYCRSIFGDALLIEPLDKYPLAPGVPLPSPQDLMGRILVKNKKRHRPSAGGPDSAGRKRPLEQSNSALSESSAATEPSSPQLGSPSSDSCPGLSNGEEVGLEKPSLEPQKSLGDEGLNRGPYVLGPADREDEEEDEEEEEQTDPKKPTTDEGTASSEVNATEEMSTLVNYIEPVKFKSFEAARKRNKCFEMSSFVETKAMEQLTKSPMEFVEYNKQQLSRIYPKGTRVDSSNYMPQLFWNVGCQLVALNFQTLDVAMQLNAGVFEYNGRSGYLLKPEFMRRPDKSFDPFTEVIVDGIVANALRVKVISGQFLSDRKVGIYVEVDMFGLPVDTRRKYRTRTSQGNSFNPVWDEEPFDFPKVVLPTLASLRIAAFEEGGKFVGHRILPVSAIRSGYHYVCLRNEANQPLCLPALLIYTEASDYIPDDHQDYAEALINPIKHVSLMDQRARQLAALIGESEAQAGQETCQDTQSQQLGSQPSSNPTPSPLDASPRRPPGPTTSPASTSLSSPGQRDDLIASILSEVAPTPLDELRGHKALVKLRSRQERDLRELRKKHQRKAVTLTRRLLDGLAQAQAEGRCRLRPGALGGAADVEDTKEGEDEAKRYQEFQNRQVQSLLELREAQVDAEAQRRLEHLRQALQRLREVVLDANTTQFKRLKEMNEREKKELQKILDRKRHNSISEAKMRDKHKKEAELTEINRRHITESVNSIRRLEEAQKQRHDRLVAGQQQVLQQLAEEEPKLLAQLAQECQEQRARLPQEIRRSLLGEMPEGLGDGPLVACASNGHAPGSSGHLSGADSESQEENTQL
Put plainly: Fluorescence-based biochemical high throughput dose response assay to identify inhibitors of phospholipase C isozymes (PLC-B3).

For the compound `CN(C)S(=O)(=O)Oc1cccc(C(=O)Nc2ccc(Cl)c(Cl)c2)c1`, at Caspase-3, the IC50 was 52.2 µM (active).

As for `Cc1ccc2[nH]c(/C(C#N)=C/c3ccc(O)c(O)c3)nc2c1`, the IC50 at Caspase-3 is 28.1 µM (active); in experiment [1], 22.3 µM (active).

In the case of `O=C(NN1C(=O)CSC1=S)C(=O)NN1C(=O)CSC1=S`, the IC50 in experiment [2] was > 122 µM (inactive).

Consider `O=C1NC(=S)S/C1=C\C=C\c1ccc([N+](=O)[O-])o1`, for which the IC50 in experiment [2] is > 122 µM (inactive); in experiment [1], 37.7 µM (active).

As a reminder, the IC50 is the midpoint of a concentration-inhibition curve.
